The record followed here is US11667651B2, “Aminopyridine derivatives as phosphatidylinositol phosphate kinase inhibitors” (HiberCell, Inc., priority 2017, dated 2023).

What is called IC50 is the concentration needed to halve the response being measured.

Format in all cases: biochemical
Assay [1] concerns the target T1, PIP4K2A (Homo sapiens, UniProt P48426).
T1 sequence (P48426 1-406): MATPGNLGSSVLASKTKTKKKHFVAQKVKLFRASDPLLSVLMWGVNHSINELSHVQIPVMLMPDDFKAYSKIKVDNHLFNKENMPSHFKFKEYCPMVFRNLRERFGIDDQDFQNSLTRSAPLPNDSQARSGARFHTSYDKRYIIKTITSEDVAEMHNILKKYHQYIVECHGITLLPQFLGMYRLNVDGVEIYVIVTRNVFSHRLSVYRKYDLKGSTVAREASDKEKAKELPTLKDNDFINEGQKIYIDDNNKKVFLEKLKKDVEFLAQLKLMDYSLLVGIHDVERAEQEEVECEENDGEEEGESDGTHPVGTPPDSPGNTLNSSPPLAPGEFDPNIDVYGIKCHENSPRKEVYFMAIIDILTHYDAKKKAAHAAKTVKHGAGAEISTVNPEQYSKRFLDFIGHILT
Kind of assay: Kinase Assay PIP4K2 A (Table 2). Details: 4 nM PIP4K2A (full length protein, SignalChem); purchased SignalChem. As to conditions: compounds listed under IC50 bins. Put shortly: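 Full-length PIP4K2A (4 nM in the added mix, with 100 μM PI(5)P diC8) pre-incubated 15 min at RT with compounds (10-point, 3-fold series) in 20 mM MOPS pH 7.2, 25 mM MgCl2, 0.005% Tween 20. ATP added from a 60 μM solution, 1 h at RT; ADP-Glo luminescence, IC50 fitted from % inhibition versus DMSO.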

Another assay deals with T2, PIP4K2B (Homo sapiens, UniProt P78356).
T2 construct: made in house; host or cells: E. coli
T2 sequence (P78356 1-416): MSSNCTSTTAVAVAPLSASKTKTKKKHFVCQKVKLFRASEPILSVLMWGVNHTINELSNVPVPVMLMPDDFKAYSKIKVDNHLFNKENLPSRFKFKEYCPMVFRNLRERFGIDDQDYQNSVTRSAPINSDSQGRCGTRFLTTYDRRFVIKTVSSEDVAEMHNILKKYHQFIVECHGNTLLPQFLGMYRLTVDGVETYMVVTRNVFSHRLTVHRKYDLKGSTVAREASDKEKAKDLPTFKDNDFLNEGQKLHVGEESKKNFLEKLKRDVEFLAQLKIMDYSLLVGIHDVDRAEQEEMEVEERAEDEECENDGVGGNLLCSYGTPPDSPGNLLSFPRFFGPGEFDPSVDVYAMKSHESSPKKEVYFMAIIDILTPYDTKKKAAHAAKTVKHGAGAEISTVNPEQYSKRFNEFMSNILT
Kind of assay: Trans-FI P kinase assay PIP4K2B (Table 4). To be noted: compounds listed under IC50 bins; read-out: Trans-FI P kinase assays: PIP4K2B IC50. Put shortly:
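Transcreener FI detection (Ex 584/Em 623) of GDP, converted via calibration curve, gives IC50 from residual activity versus log concentration (highest 4.8 μM). Reaction: 80 μM PI5P plus DOPE carrier, 100 μM GTP, 5 nM GST-tagged enzyme, pH 7.3 HEPES with MgCl2 and 5% DMSO, 2 h after 1 h enzyme-compound preincubation at 27° C.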

Assay [2] addresses T1, PIP4K2A. Kind of assay: ADP-glo kinase assay PIP4K 2A (Table 3). Set-up: made in house; host or cells: E. coli. To be noted: compounds listed under IC50 bins. Put shortly: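 Full-length PIP4K2A (4 nM in the mix) with 100 μM PI(5)P diC8 pre-incubated 15 min with compound in MOPS pH 7.2, 25 mM MgCl2; ATP added (60 μM solution), 1 h at RT. ADP formed read by ADP-Glo luminescence; 10-point curves versus DMSO controls fitted to IC50.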
For orientation: In ADP-Glo the light output rises with the ADP produced.

A value given as a limit tells only on which side of the number the result lay.

For the compound `CN(C)C/C=C/C(=O)N1CCC(C(=O)Nc2cccc(CCC(=O)Nc3cncc(Nc4ccc(-c5ccc(C(=O)N(C)C)cc5)cn4)c3)c2)CC1` [Example 110, (E)-1-(4-(dimethylamino)but-2-enoyl)-N-(3-(3-((5-((5-(4-(dimethylcarbamoyl)phenyl)pyridin-2-yl)amino)pyridin-3-yl)amino)-3-oxopropyl)phenyl)piperidine-4-carboxamide], the IC50 at PIP4K2A [1] is 100 to 1000 nM; on PIP4K2B, more than 1000 nM; against PIP4K2A [2] it was 100 to 1000 nM.
Regarding `COc1ncc(Nc2ccc(-c3ccc(N4CCCC4=O)cc3)cn2)cc1N(C)C(C)=O` [Example 160, N-(2-methoxy-5-((5-(4-(2-oxopyrrolidin-1-yl)phenyl)pyridin-2-yl)amino)pyridin-3-yl)-N-methylacetamide], the IC50 at PIP4K2A [1], on PIP4K2B and on PIP4K2A [2] was more than 1000 nM in each case.
Regarding `CN(C)C(=O)c1ccc(-c2ccc(Nc3cnc4c(c3)OCO4)nc2)cc1` [Example 62, 4-(6-([1,3]dioxolo[4,5-b]pyridin-6-ylamino)pyridin-3-yl)-N,N-dimethylbenzamide], the IC50 against PIP4K2A [1] is 100 to 1000 nM; on PIP4K2B, more than 1000 nM; at PIP4K2A [2] it was 100 to 1000 nM.
`C[C@@H](c1ccccc1)N1CCN(c2cncc(Nc3ccc(-c4ccc(C(=O)N(C)C)cc4)cn3)c2)C1=O` [Example 80, (S)—N,N-dimethyl-4-(6-((5-(2-oxo-3-(1-phenylethyl)imidazolidin-1-yl)pyridin-3-yl)amino)pyridin-3-yl)benzamide]: the half-inhibitory concentration (IC50) on PIP4K2A [1], on PIP4K2B and against PIP4K2A [2] was 10 to 100 nM in each case.
As to `O=C1C[C@@H](O)CN1c1ccc(-c2ccc(Nc3cnc4c(c3)N3C(=O)CC[C@H]3CO4)nc2)cc1` [Example 236, (S)-2-((5-(4-((R)-4-hydroxy-2-oxopyrrolidin-1-yl)phenyl)pyridin-2-yl)amino)-6,6a,7,8-tetrahydro-9H-pyrido[2,3-b]pyrrolo[1,2-d][1,4]oxazin-9-one], the concentration for half-maximal inhibition (IC50) against PIP4K2A [1] was 100 to 1000 nM; on PIP4K2B, 10 to 100 nM; against PIP4K2A [2], 100 to 1000 nM.
Turning to `O=C1CCCN1c1ccc(-c2ccc(Nc3cnc4c(c3)N(S(=O)(=O)C3CC3)CCO4)nc2)cc1` [Example 154, 1-(4-(6-((1-(cyclopropylsulfonyl)-2,3-dihydro-1H-pyrido[2,3-b][1,4]oxazin-7-yl)amino)pyridin-3-yl)phenyl)pyrrolidin-2-one], the IC50 on PIP4K2A [1], on PIP4K2B and against PIP4K2A [2] was 10 to 100 nM throughout.
In the case of `CN(c1cncc(Nc2ccc(-c3ccc(N4CCCC4=O)cc3)cn2)c1)S(C)(=O)=O` [Example 157, N-methyl-N-(5-((5-(4-(2-oxopyrrolidin-1-yl)phenyl)pyridin-2-yl)amino)pyridin-3-yl)methanesulfonamide], the IC50 against PIP4K2A [1], at PIP4K2B and on PIP4K2A [2] was 10 to 100 nM throughout.
For the compound `CC(C)(O)C(=O)N1CCOc2ncc(Nc3ccc(-c4ccc(N5CCCC5=O)cc4)cn3)cc21` [Example 238, 1-(4-(6-((1-(2-hydroxy-2-methylpropanoyl)-2,3-dihydro-1H-pyrido[2,3-b][1,4]oxazin-7-yl)amino)pyridin-3-yl)phenyl)pyrrolidin-2-one], the IC50 on PIP4K2A [1] is 1 to 10 nM; on PIP4K2B, 10 to 100 nM; against PIP4K2A [2] it was 1 to 10 nM.
With `CN(C)C(=O)c1ccc(-c2ccc(Nc3cncc(NC(=O)c4ccc(F)cc4)c3)nc2)cc1` [Example 139, 4-(6-((5-(4-fluorobenzamido)pyridin-3-yl)amino)pyridin-3-yl)-N,N-dimethylbenzamide], the IC50 against PIP4K2A [1], at PIP4K2B and against PIP4K2A [2] was 10 to 100 nM each time.
As for `COc1cccc(C(=O)Nc2cncc(Nc3ccc(-c4ccc(C(=O)N(C)C)cc4)cn3)c2)c1` [Example 141, 4-(6-((5-(3-methoxybenzamido)pyridin-3-yl)amino)pyridin-3-yl)-N,N-dimethylbenzamide], the figures for the IC50 against PIP4K2A [1], on PIP4K2B and against PIP4K2A [2] were 1 to 10 nM, 10 to 100 nM and 10 to 100 nM, respectively.
Turning to `CN(C)C(=O)c1ccc(-c2ccc(Nc3cncc(NC(=O)c4cccc(F)c4)c3)nc2)cc1` [Example 140, 4-(6-((5-(3-fluorobenzamido)pyridin-3-yl)amino)pyridin-3-yl)-N,N-dimethylbenzamide], the IC50 at PIP4K2A [1], at PIP4K2B and against PIP4K2A [2] was 10 to 100 nM in each case.
Consider `CN(C)C(=O)c1ccc(-c2ccc(Nc3cncc(N4CCN(Cc5cccc(N)c5)C4=O)c3)nc2)cc1` [Example 223, 4-(6-((5-(3-(3-aminobenzyl)-2-oxoimidazolidin-1-yl)pyridin-3-yl)amino)pyridin-3-yl)-N,N-dimethylbenzamide], for which the IC50 against PIP4K2A [1] was not above 1 nM; on PIP4K2B it was 10 to 100 nM; on PIP4K2A [2], 1 to 10 nM.
For `CN(C)C(=O)c1ccc(-c2ccc(Nc3cncc(N4CCN(Cc5ccc(N)cc5)C4=O)c3)nc2)cc1` [Example 222, 4-(6-((5-(3-(4-aminobenzyl)-2-oxoimidazolidin-1-yl)pyridin-3-yl)amino)pyridin-3-yl)-N,N-dimethylbenzamide], in that order: not above 1 nM, 10 to 100 nM and 1 to 10 nM.
As for `CN(C)C(=O)c1cccc2ncc(Nc3ccc(-c4ccc(N5CCCC5=O)cc4)cn3)cc12` [Example 147, N,N-dimethyl-3-((5-(4-(2-oxopyrrolidin-1-yl)phenyl)pyridin-2-yl)amino)quinoline-5-carboxamide], the IC50 is 100 to 1000 nM against PIP4K2A [1], more than 1000 nM on PIP4K2B and 100 to 1000 nM against PIP4K2A [2].
For the compound `CN(C)C(=O)c1ccc(-c2ccc(Nc3cncc(NC(=O)c4ccccc4)c3)nc2)cc1` [Example 121, 4-(6-((5-benzamidopyridin-3-yl)amino)pyridin-3-yl)-N,N-dimethylbenzamide], the IC50 at PIP4K2A [1], at PIP4K2B and at PIP4K2A [2] was 10 to 100 nM each time.
Turning to `O=C1CCCN1c1ccc(-c2ccc(Nc3cnc4c(c3)N3C(=O)CC[C@@H]3CO4)nc2)cc1` [Example 85, (R)-2-((5-(4-(2-oxopyrrolidin-1-yl)phenyl)pyridin-2-yl)amino)-6,6a,7,8-tetrahydro-9H-pyrido[2,3-b]pyrrolo[1,2-d][1,4]oxazin-9-one], the values for the IC50 against PIP4K2A [1], at PIP4K2B and at PIP4K2A [2] were 1 to 10 nM, 10 to 100 nM and 10 to 100 nM, respectively.
Consider `CN(C)C(=O)c1ccc(-c2ccc(Nc3cncc(OC(F)F)c3)nc2)cc1` [Example 49, 4-(6-((5-(difluoromethoxy)pyridin-3-yl)amino)pyridin-3-yl)-N,N-dimethylbenzamide], for which the IC50 was 100 to 1000 nM on PIP4K2A [1], more than 1000 nM on PIP4K2B and 100 to 1000 nM on PIP4K2A [2].
For the compound `COc1ccc(C(=O)Nc2cncc(Nc3ccc(-c4ccc(C(=O)N(C)C)cc4)cn3)c2)cc1` [Example 142, 4-(6-((5-(4-methoxybenzamido)pyridin-3-yl)amino)pyridin-3-yl)-N,N-dimethylbenzamide], the half-inhibitory concentration (IC50) at PIP4K2A [1], on PIP4K2B and against PIP4K2A [2] was 10 to 100 nM in each case.
As for `CN(C)C(=O)c1ccc(-c2ccc(Nc3cnc4c(c3)CCCO4)nc2)cc1` [Example 58, 4-(6-((3,4-dihydro-2H-pyrano[2,3-b]pyridin-6-yl)amino)pyridin-3-yl)-N,N-dimethylbenzamide], the IC50 was in the range of 10 to 100 nM against PIP4K2A [1], 10 to 100 nM at PIP4K2B and 100 to 1000 nM at PIP4K2A [2].
In the case of `O=C1CCCN1c1ccc(-c2ccc(Nc3cnc4c(c3)N(C(=O)CO)CCO4)nc2)cc1` [Example 235, 1-(4-(6-((1-(2-hydroxyacetyl)-2,3-dihydro-1H-pyrido[2,3-b][1,4]oxazin-7-yl)amino)pyridin-3-yl)phenyl)pyrrolidin-2-one], the figures for the IC50 against PIP4K2A [1], on PIP4K2B and at PIP4K2A [2] were 1 to 10 nM, 10 to 100 nM and 10 to 100 nM, respectively.
